Measurements as given in US6458797B1, “Methods for remodeling neuronal and cardiovascular pathways” (Queen's University of Kingston, priority 1998, dated 2002).

Tests used:
[1] = system: spontaneously hypertensive rats (SHR); assay: Structurally-based vascular resistance in perfused vascular bed of SHR after 1 or 2 weeks of drug treatment; assay type: in vivo, rat; settings: for Slope Flow Pressure: control 7.13 ± 0.63; for Maximum Constriction With Cocktail “Yield”: control 381 ± 21
Procedure: Penile perfusion preparations were made using the procedure established by Banting, J. D., et al., “Isolation and Perfusion of the Pudendal Vasculature in Male Rats. J Urol., 2: 587-590 (1995). A heated chamber served to maintain the ambient temperature and the entire preparation at 37-38° C. The perfusate was held in a reservoir and passed through a heating and a bubble trapping/mixing chamber connected to a single peristaltic pump (Minipuls 2 Pump, Gilson, Inc., 3000 W. Beltline Highway, Middleton, Wis. USA 53562). An injection port was located distal to the pump for the introduction of pharmacological agents to minimize dead volume. Drugs were administered via a Harvard Apparatus, Inc. infusion pump (Harvard Apparatus, Inc., 84 October Hill Road, Holliston, Mass. 01746). The perfusate was a Tyrode-dextran solution consisting of a mixture of 20 mg of KCI, 32.3mg of CaCl2.H2O, 5.1 mg of MgCl2.6H2O, 6.2 mg of NaH2PO4.2H2O, 155 mg of NaHCO3, 100 mg of glucose, and 800 mg of NaCl in each 100 mL of fluid. The solution was maintained at pH 7.4, and a temperature of 37-39° C., and oxygenated with 95% O2 and 5% CO2. The rats were anaesthetized (sodium pentobarbital 60 mg/kg body weight i.p.) and heparinized (1000 IU/kg, i.v.). The bilateral isolation of penile vasculature was achieved by ligating all of the branching arteries except for the pudendal; then the abdominal aorta was cannulated proximal to the iliac bifurcation with a single lumen catheter. The catheter was connected to the perfusion apparatus via a pressure transducer for arterial pressure recording. After sectioning the vena cava and spinal cord to remove venous resistance and to eliminate neural influences, a flow of perfusate (1 mL/min per kg body weight) through the abdominal cannula was initiated. The perfusion pressure was continuously recorded on a data acquisition system (MacLab, AD Instruments, Houston, Tex.). The perfusate was infused for twenty minutes to flush the penile vasculature of blood and obtain a stable pressure before the beginning of any experiment. Following this, sodium nitroprusside (20 μg/mL) was infused to induce maximum vasodilation. The flow rate-perfusion/pressure relationship was determined by measuring the pressure at minimum vascular resistance at flow rates of 0.5, 1.0, 2.0, 4.0 mL/min per kg of body weight. A cumulative α1-adrenoreceptor concentration-response curve to methoxamine (2.5, 5, 10, 25, 50 μg/mL was then generated. Each concentration of methoxamine was infused for a duration of 10 minutes, at which time a plateau was reached. Subsequently, a continuous injection of a cocktail containing a supramaximal concentration of vasoconstrictors (vasopressin, 20.5 μg/mL, angiotensin-II, 200 ng/mL; methoxamine, 64 μg/mL; Sigma, St. Louis, Mo., 63178) was given to ensure that maximum constrictor response that was not dependent upon the activation of a single receptor type was achieved. A second injection of the constrictor cocktail was administered to ensure the tissue “yield” was maximum constriction. […] At the end of the concentration-response relationship, the aorta was cut distal to the catheter, and a baseline flow-pressure curve was recorded again. This was done to ensure that pressure fell to zero and to account for any false pressure readings that may have resulted due to movement of the catheter during the experiment.
The hindlimb perfusion preparation was adopted from a technique originally designed by Folkow et al., Acta Physiol Scand., 80: 93-106 (1973), as modified by Adams et al., Hypertension, 14: 191-202 (1989). The perfusion experiment was performed as described above. Drugs were administered into the mixing chamber via a Harvard Apparatus infusion pump. The rats were anaesthetized (Inactin, 100 mg/kg of body weight, i.p.) and heparinized (1000 IU/kg of body weight, i.v.).

[2] = system: spontaneously hypertensive rats (SHR); assay: Left ventricle weight of SHR after 1 or 2 weeks of drug treatment; assay type: in vivo, rat; settings: for Left Ventricle Weight (g)/Body Weight (kg) Ratio: control 2.46 ± 0.08
Procedure: Following this treatment, structurally-based resistance to blood flow in the perfused penile vascular bed and hindlimb vascular bed models were measured using the methods detailed above. […] The animal hearts were excised and weighed.

α1-adrenoreceptor [3] = assay: Penile vascular bed perfusion, cumulative α1-adrenoreceptor concentration-response curve to methoxamine; parameters: species or system rat; settings: mean ± SD; for Slope Methoxamine: steepest slope of concentration-response curve
Procedure: Male spontaneously hypertensive (SH) rats weighing between 246-313 g, and normotensive Sprague-Dawley (SD) rats weighing between 246-440 g were obtained from Charles River Laboratories (Montreal, Quebec, Canada). The animals were maintained in individual cages with a 12 hour light/12 hour dark cycle, and a room temperature of 22-24° C. They were provided with standard rodent chow and tap water ad libitum and were acclimated to the room for at least two days before the experiments. All procedures were carried out in accordance with the guidelines set out by the Canadian Council on Animal Care.
Penile perfusion preparations were made using the procedure established by Banting, J. D., et al., “Isolation and Perfusion of the Pudendal Vasculature in Male Rats. J Urol., 2: 587-590 (1995). A heated chamber served to maintain the ambient temperature and the entire preparation at 37-38° C. The perfusate was held in a reservoir and passed through a heating and a bubble trapping/mixing chamber connected to a single peristaltic pump (Minipuls 2 Pump, Gilson, Inc., 3000 W. Beltline Highway, Middleton, Wis. USA 53562). An injection port was located distal to the pump for the introduction of pharmacological agents to minimize dead volume. Drugs were administered via a Harvard Apparatus, Inc. infusion pump (Harvard Apparatus, Inc., 84 October Hill Road, Holliston, Mass. 01746). The perfusate was a Tyrode-dextran solution consisting of a mixture of 20 mg of KCI, 32.3mg of CaCl2.H2O, 5.1 mg of MgCl2.6H2O, 6.2 mg of NaH2PO4.2H2O, 155 mg of NaHCO3, 100 mg of glucose, and 800 mg of NaCl in each 100 mL of fluid. The solution was maintained at pH 7.4, and a temperature of 37-39° C., and oxygenated with 95% O2 and 5% CO2. The rats were anaesthetized (sodium pentobarbital 60 mg/kg body weight i.p.) and heparinized (1000 IU/kg, i.v.). The bilateral isolation of penile vasculature was achieved by ligating all of the branching arteries except for the pudendal; then the abdominal aorta was cannulated proximal to the iliac bifurcation with a single lumen catheter. The catheter was connected to the perfusion apparatus via a pressure transducer for arterial pressure recording. […] The perfusion pressure was continuously recorded on a data acquisition system (MacLab, AD Instruments, Houston, Tex.). […] The flow rate-perfusion/pressure relationship was determined by measuring the pressure at minimum vascular resistance at flow rates of 0.5, 1.0, 2.0, 4.0 mL/min per kg of body weight. […] At the end of the concentration-response relationship, the aorta was cut distal to the catheter, and a baseline flow-pressure curve was recorded again. […]

α1-adrenoreceptor [4] = assay: Hindlimb vascular bed perfusion, cumulative α1-adrenoreceptor concentration-response curve to methoxamine; parameters: species or system rat; settings: mean ± SD
Procedure: Male spontaneously hypertensive (SH) rats weighing between 246-313 g, and normotensive Sprague-Dawley (SD) rats weighing between 246-440 g were obtained from Charles River Laboratories (Montreal, Quebec, Canada). The animals were maintained in individual cages with a 12 hour light/12 hour dark cycle, and a room temperature of 22-24° C. They were provided with standard rodent chow and tap water ad libitum and were acclimated to the room for at least two days before the experiments. All procedures were carried out in accordance with the guidelines set out by the Canadian Council on Animal Care. The hindlimb perfusion preparation was adopted from a technique originally designed by Folkow et al., Acta Physiol Scand., 80: 93-106 (1973), as modified by Adams et al., Hypertension, 14: 191-202 (1989). The perfusion experiment was performed as described above. Drugs were administered into the mixing chamber via a Harvard Apparatus infusion pump. […] Following a midline abdominal incision, the abdominal aorta was cannulated proximal to the iliac bifurcation with a double lumen catheter (Storz, St Louis, Mo., USA), and the catheter was extended down the right common iliac artery. One lumen of the catheter was connected to the perfusion apparatus, while the other was connected to a pressure transducer for arterial pressure recording. […] A cumulative α1-adrenoreceptor concentration-response curve to methoxamine (0.5, 1, 2, 4, 8, 16, 32, 64 μg/mL) was then generated. […] Subsequently, a bolus injection of a cocktail containing a supramaximal concentration of vasoconstrictors was given as above. At the end of the concentration-response relationship, the iliac artery was cut distal to the catheter, and the flow pressure curve was monitored again. Flow rates for the hindlimb perfusion experiments were determined based on expected flow rates of exercising skeletal muscle at maximum dilation. […] All values in the figures and tables were expressed as mean ± standard deviation. Results comparing penile and hindlimb vasculature were analyzed using the Student's t-test. […]

[5] = SHR-H: hydralazine 45 mg/kg per day, n = 7
[6] = SHR, enalapril 30 mg/kg per day, 2-week period of treatment, versus control
[7] = SHR-E1: enalapril 30 mg/kg per day, 1 week, n = 5
[8] = SHR-E2: enalapril 30 mg/kg per day, 2 weeks, n = 7

NNc1nncc2ccccc12 [hydralazine]
decrease of “yield” point ([1]; SHR, hydralazine 45 mg/kg per day, versus control): 7.3%±2.9%
Slope Flow Pressure [1, 5]: 6.63 ± 0.86
Maximum Constriction With Cocktail “Yield” [1, 5]: 353 ± 11 mm Hg
decrease of left ventricular weight ([2]; SHR, hydralazine 45 mg/kg per day, versus control, no significant effect): 3.7%±5.0%
Left Ventricle Weight (g)/Body Weight (kg) Ratio [2, 5]: 2.37 ± 0.12 g/kg

COc1ccc(OC)c(C(O)C(C)N)c1 (centres unmarked) [methoxamine]
Maximum Constriction With Methoxamine (α1-adrenoreceptor [3]; SD (normotensive Sprague-Dawley), methoxamine 50 μg/mL): 171 ± 36 mm Hg
Slope Methoxamine (α1-adrenoreceptor [3]; SD): 2.03±0.68
Maximum Constriction With Methoxamine (α1-adrenoreceptor [3]; SHR, perfusion pressure at supramaximal methoxamine 50 μg/mL): 172±32 mm Hg
Slope Methoxamine (α1-adrenoreceptor [3]; SHR): 1.64±0.21
Maximum Constriction With Methoxamine (α1-adrenoreceptor [4]; SD, methoxamine 64 μg/mL): 191 ± 55 mm Hg
Slope Methoxamine (α1-adrenoreceptor [4]; SD, steepest slope of concentration-response curve): 3.0±0.99
Maximum Constriction With Methoxamine (α1-adrenoreceptor [4]; SHR, perfusion pressure at supramaximal methoxamine 64 μg/mL): 253±25 mm Hg

CCOC(=O)[C@H](CCc1ccccc1)N[C@@H](C)C(=O)N1CCC[C@H]1C(=O)O [enalapril]
decrease of “yield” value [1, 6]: 12.1%±6.0%
Slope Flow Pressure [1, 7]: 6.10 ± 1.5
Maximum Constriction With Cocktail “Yield” [1, 7]: 358 ± 20 mm Hg
Slope Flow Pressure [1, 8]: 6.45 ± 1.31
Maximum Constriction With Cocktail “Yield” ([1]; SHR-E2: enalapril 30 mg/kg per day, 2 weeks, n = 7, vasopressin, angiotensin-II, methoxamine cocktail): 335 ± 23 mm Hg
decrease of left ventricular mass [2, 6]: 13.6%±3.2%
Left Ventricle Weight (g)/Body Weight (kg) Ratio [2, 7]: 2.17 ± 0.05 g/kg
Left Ventricle Weight (g)/Body Weight (kg) Ratio [2, 8]: 2.13 ± 0.08 g/kg
